Measured values published in patent publication US9775844B2, “Heterocyclic compounds and uses thereof” (Infinity Pharmaceuticals, Inc., priority 2014, dated 2017).
Where two headings read alike, the source gives them in different places.

How the values were obtained:
[1] = system: post-irradiated tumors; settings: cited from earlier work
[2] = system: IL-8 induced neutrophil migration; test: IL-8 driven murine air pouch model; settings: mouse air pouch; BB 0.1-3 mg/kg, AA 10-50 mg/kg
[3] = system: human T cells; test: Concanavalin A-induced model for activation of human T cells (IFN-γ); type: cell-based
[4] = Oral PK in the rat LPS studies (free plasma concentration); type: in vivo; settings: for concentration at 1.5 h / concentration at […]: plasma, po, read-out: Free Plasma Conc; for concentration at […]: 5.5h
Protocol: (§1) This study also includes assessment of the exposure to the compounds in plasma and lung tissues.
(§2) Ref C is budesonide p.o. The compound was administered p.o. and about 1 hour later, LPS was administered intra-tracheally and plasma was collected. After about 5 hours, plasma and bronchoalveolar lavage samples were collected.

[5] = biological target: PI3K δ (Homo sapiens (Human), UniProt O00329); test: PI3-Kinase Promega ADP-Glo Max assay; type: biochemical
Sequence of PI3K δ (O00329 whole entry): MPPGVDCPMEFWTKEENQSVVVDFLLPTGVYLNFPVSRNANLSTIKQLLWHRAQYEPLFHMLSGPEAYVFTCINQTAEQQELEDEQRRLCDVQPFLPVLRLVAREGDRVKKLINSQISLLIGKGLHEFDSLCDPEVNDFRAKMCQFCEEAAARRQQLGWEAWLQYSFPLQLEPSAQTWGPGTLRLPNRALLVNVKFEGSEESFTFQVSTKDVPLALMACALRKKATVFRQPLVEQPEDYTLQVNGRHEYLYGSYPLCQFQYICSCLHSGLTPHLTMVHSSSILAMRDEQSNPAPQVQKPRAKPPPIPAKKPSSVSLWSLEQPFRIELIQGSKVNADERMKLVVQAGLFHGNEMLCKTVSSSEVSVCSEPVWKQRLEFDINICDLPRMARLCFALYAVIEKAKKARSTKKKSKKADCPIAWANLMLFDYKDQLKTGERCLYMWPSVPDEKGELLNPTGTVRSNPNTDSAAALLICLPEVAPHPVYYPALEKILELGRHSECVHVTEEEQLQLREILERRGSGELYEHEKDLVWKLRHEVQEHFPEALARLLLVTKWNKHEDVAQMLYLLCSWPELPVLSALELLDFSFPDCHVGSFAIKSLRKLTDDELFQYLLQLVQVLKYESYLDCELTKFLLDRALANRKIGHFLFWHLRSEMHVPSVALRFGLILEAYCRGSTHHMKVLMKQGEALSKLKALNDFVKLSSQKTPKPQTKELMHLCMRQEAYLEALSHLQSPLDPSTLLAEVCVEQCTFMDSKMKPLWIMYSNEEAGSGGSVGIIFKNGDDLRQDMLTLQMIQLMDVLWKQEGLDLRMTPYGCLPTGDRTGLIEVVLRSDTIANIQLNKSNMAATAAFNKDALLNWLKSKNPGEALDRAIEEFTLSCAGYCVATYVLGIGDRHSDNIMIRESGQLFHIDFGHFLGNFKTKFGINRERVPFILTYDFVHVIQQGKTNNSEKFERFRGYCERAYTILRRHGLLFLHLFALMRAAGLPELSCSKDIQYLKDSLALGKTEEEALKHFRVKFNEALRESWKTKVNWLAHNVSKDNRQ
Sequence of PI3K δ (P27986 whole entry partner): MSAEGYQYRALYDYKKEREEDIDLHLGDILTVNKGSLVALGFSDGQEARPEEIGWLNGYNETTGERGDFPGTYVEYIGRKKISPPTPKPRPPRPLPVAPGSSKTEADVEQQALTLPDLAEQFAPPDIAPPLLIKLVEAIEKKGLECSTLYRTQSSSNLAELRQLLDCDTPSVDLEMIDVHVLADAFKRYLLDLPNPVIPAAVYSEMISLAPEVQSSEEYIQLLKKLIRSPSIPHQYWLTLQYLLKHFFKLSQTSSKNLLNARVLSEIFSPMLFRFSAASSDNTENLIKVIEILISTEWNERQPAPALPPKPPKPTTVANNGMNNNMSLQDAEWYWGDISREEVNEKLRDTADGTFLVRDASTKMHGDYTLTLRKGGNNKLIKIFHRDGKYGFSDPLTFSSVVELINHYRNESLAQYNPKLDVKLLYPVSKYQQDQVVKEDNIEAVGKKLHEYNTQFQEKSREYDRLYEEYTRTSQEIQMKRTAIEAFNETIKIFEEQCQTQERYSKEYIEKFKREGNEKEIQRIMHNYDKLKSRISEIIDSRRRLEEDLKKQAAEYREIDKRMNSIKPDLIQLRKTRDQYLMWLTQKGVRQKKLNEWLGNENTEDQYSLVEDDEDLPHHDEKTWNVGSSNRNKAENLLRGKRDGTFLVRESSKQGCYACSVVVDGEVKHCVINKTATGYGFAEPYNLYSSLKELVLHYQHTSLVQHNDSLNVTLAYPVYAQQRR
Protocol: (§3) Promega ADP-Glo Max assay kit (Cat. No. V7002) was utilized to determine IC50 values for α, β, δ and γ isoforms of human Class I PI3 kinases (Millipore). […] Reactions were incubated at room temperature for 2 hours followed by addition of 25 uL of stop solution. After a 40-minute incubation at room temperature, 50 uL of Promega detection mix was added followed by incubation for 1 hour at room temperature. Plates were then read on Envision plate reader in lunimescence mode. Data was converted to % inhibition using the following equation below:
(§4) [formula] where S is the sample luminescence, Pos is a positive control without added PI3K, Neg is the negative control without added compound. Data was then plotted as % inhibition vs compound concentration.

[6] = biological target: PI3K-γ in RAW264.7 macrophages (Mus musculus (Mouse), UniProt Q9JHG7); test: Raw264.7 p110 γ assay (PI3K-γ selective cellular assay, C5a-stimulated phospho-AKT); type: cell-based
Sequence of PI3K-γ in RAW264.7 macrophages (Q9JHG7 whole entry): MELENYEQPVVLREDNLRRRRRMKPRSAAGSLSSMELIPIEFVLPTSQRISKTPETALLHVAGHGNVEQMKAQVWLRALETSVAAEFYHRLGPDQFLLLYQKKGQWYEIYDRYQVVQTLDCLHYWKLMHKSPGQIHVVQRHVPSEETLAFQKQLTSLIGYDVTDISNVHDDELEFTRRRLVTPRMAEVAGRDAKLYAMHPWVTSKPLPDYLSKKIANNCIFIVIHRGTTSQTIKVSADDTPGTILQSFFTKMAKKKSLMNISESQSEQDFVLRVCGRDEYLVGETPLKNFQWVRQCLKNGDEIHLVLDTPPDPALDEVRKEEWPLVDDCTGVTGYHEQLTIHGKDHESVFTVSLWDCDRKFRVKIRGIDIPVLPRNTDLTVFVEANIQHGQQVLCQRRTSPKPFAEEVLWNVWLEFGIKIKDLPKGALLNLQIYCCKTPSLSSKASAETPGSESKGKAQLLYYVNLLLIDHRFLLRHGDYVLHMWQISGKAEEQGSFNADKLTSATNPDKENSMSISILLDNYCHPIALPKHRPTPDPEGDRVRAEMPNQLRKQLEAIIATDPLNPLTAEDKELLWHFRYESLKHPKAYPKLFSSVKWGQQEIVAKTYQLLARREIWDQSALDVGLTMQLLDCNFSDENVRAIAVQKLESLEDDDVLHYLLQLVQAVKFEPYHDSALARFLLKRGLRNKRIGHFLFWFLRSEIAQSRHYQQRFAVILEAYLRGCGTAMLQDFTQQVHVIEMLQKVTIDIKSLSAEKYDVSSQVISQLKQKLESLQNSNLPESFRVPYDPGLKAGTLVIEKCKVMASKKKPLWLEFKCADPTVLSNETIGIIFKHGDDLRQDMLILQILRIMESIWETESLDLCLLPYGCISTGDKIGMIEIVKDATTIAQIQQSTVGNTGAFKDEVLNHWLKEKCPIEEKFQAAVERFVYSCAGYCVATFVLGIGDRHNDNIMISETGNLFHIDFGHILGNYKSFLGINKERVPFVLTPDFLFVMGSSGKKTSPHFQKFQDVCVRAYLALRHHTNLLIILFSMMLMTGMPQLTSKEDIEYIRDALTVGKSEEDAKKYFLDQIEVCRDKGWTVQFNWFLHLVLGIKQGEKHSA
From the text: Briefly, serum-starved RAW264.7 cells are stimulated with a known GPCR agonist C5a. […] Cells can be treated with test compounds prior to, simultaneously with, or subsequent to the stimulation by C5a. RAW 264.7 cells respond to the complement component fragment C5a through activation of the C5a receptor, and the C5a receptor activates macrophages and induces cell migration.

[7] = biological target: PI3K-delta (Homo sapiens (Human), UniProt O00329); settings: as described in Table 4 of WO2013/032591; cited from earlier work
Sequence of PI3K-delta (O00329 whole entry, species assumed): as the sequence (O00329 whole entry) above
Sequence of PI3K-delta (P27986 whole entry partner, species assumed): as the sequence (P27986 whole entry partner) above

[8] = biological target: PI3K-α in SKOV-3 cells (Homo sapiens (Human), UniProt P42336, H1047R); test: PI3K-α selective cellular assay (phospho-AKT); type: cell-based
[9] = system: LPS induced neutrophil influx in bronchoalveolar lavage fluid; test: LPS-induced neutrophilia, oral administration; type: in vivo; settings: rat, p.o., 4 hours post-LPS challenge, dose dependent
Protocol: as §1, §2

[10] = biological target: PI3K-δ in RAJI cells (Homo sapiens (Human), UniProt O00329); test: RAJI p110 δ assay (PI3K-δ selective cellular assay, phospho-AKT); type: cell-based
Sequence of PI3K-δ in RAJI cells (O00329 whole entry): as the sequence (O00329 whole entry) above
Sequence of PI3K-δ in RAJI cells (P27986 whole entry partner): as the sequence (P27986 whole entry partner) above

[11] = system: CXCL12 induced p-AKT in polarized bone marrow derived macrophages; test: CXCL12-induced p-AKT induction assay in differentiated macrophages; type: cell-based, mouse
From the text: Macrophage Differentiation and Polarization: Long bones from young C57B6 mice were harvested and bone marrow was extruded by gentle lavage of the bone marrow cavities with a 28 gauge needle. Red blood cells were removed using red blood cell lysis buffer (Sigma). Bone marrow cells were differentiated to macrophages using MCSF for 6 days (RPMI and 20% FCS) with one media change (with removal of all non-adherent cells) at day 3. Macrophages were polarized into MO (MCSF), M1 (MCSF, IFNγ, and LPS for 1 day), or M2 (MCSF, IL4 for 2 days).
CXCL12-Induced p-AKT Induction Assay: Polarized macrophages were lifted with Acutase, and plated at 0.5M cells per well (0.5 ml) in a deep well (2 ml) non adherant plate in polarization media for 1 hour. […] CXCL12 was added, and the cells were mixed on a plate shaker for 2 minutes. 1 ml of 37 degree FACS Lyse/fix buffer (BD bioscience) was added and the plate was mixed for 1 minute. The plates were spun and decanted and frozen at −80° C. Phospho AKT staining with anti Phospho AKT 473 PERCP labeled (Cell Signaling Technologies) was performed and measured by flow cytometry. Total cell MFI was used to calculate the effect of tested compound on CXCL12 induction of phospho AKT.

[12] = biological target: PI3K-β in 786-O cells (Homo sapiens (Human), UniProt P42338); test: PI3K-β selective cellular assay (phospho-AKT); type: cell-based
[13] = Human pharmacokinetic prediction based on non-human animal studies
Protocol: Based on non-human animal studies, a predicted human dose to achieve exposure at the IC90 for PI3K-γ is approximately 2 mg. […] In some embodiments, the dose (e.g., a therapeutically effective dose) is about 2 mg, 1-3 mg, 1-5 mg, 1-10 mg, 0.5-20 mg, 0.1-50 mg, 0.1-75 mg, 0.5-75 mg, 1-75 mg, 0.1-100 mg, 0.5-100 mg, or 1-100 mg. In some embodiments, the dose is about 1-10 mg. In some embodiments, the dose is about 1-50 mg. In some embodiments, the dose is about 1-100 mg. In a 70 kg human, a 2 mg dose corresponds to 0.029 mg/kg.

[14] = biological target: PI3K γ (Homo sapiens (Human), UniProt P48736); test: PI3-Kinase Promega ADP-Glo Max assay; type: biochemical
Sequence of PI3K γ (P48736 whole entry): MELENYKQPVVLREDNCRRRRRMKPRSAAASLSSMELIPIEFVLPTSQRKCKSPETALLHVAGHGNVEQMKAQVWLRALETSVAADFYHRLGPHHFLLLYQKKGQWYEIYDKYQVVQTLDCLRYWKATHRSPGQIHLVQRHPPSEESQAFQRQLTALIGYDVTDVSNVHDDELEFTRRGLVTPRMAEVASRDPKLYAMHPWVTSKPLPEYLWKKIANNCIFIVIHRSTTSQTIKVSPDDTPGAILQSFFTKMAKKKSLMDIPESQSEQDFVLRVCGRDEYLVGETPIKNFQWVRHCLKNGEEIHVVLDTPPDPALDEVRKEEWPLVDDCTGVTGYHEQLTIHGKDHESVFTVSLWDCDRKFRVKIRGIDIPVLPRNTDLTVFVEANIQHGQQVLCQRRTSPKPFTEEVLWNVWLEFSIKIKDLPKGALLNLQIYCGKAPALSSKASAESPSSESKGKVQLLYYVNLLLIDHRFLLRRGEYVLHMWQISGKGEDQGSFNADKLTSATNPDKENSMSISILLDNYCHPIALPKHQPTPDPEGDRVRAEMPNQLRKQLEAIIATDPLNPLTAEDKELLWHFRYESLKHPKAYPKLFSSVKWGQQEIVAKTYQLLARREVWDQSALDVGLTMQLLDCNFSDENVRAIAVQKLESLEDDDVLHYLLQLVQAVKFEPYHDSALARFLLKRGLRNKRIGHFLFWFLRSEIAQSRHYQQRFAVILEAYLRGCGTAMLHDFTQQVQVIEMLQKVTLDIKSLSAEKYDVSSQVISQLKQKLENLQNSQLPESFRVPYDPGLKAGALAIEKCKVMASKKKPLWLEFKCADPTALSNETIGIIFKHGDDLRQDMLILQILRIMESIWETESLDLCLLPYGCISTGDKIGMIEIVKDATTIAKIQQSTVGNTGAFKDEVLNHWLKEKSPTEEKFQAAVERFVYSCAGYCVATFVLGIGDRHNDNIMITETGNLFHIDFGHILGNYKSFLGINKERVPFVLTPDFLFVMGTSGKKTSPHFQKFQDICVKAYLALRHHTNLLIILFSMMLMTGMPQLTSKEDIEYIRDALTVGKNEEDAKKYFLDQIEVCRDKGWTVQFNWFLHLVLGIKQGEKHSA

[15] = biological target: PI3K β (Homo sapiens (Human), UniProt P42338); test: PI3-Kinase Promega ADP-Glo Max assay; type: biochemical
Protocol: as §3, §4

[16] = biological target: PI3K α (Homo sapiens (Human), UniProt P42336); test: PI3-Kinase Promega ADP-Glo Max assay; type: biochemical
Protocol: as §3, §4

[17] = Mouse pharmacokinetics, oral single and repeat dose; type: in vivo; settings: for tlast / AUC(0-t) / Cmax / Tmax / AUC(0-inf) / half-life: female C57 mice; for AUC(0-t): female, C57, mouse, po; for AUC(0-t) / Cmax / Tmax / AUC(0-inf) / half-life: plasma; for Cmax / Tmax / AUC(0-inf) / half-life: mouse
Protocol: Animals were weighed daily prior to dosing. […] On subsequent dosing days, the animals' condition was noted prior to dosing; the animals were observed within 4 hours of dosing, and at the end of the day.
Samples were collected at pre-dose 0.25, 0.5, 1, 2, 4, 6 and 24 h following the first dose on day 1 and pre-dose (trough), 0.25, 0.5, 1, 2, 4, 6 and 24 h following the final dose on day 3 Animals received a single oral dose daily for 3 consecutive days. Blood was collected by retro-orbital bleeding for all time points on day 1. All other blood sampling was collected by a cardiac puncture. Blood was collected into K2EDTA tubes and placed on wet ice. Within 15 min of collection, the sample was centrifuged at 10,000 rpm at 4° C. for 10 min in a bench top centrifuge and the plasma transferred to a new microcentrifuge tube.
A similar study was carried out using Compound 88. […] Below is a table that details the results for Compound 88: […]

[18] = system: haematological malignancies; settings: cited from earlier work
[19] = system: CCL3, CCL4, and CXCL13; settings: CLL; cited from earlier work
[20] = system: LLC tumor brei; test: LLC tumor brei model with or without cyclophosphamide (tumor growth, FACS); type: in vivo, mouse; settings: Compound BB 15 mg/kg QD PO; cyclophosphamide 50 mg/kg EOD IP
Protocol: In this experiment, treatment began when tumors reached approx. 150 mm^3—around day 12. Caliper and xenogen images were monitored. Treatment groups n=13-15/group. […] Samples for FACs analysis were collected on day 23 post implant. Using FACS, cells were assayed for the level of CD11b and Gr-1.

c1cc(CN2CCCNCCNCCCNCC2)ccc1CN1CCCNCCNCCCNCC1 [AMD3100]
tumor vasculogenesis and tumor regrowth [1]: blocked tumor vasculogenesis and tumor regrowth

CC(C)n1c([C@H](C)Nc2ncnc(N)c2C#N)cc2cccc(-c3ccc(=O)n(C)c3)c2c1=O [Compound AA, reference compound]
IL-8 induced neutrophil migration [2]: does not inhibit IL-8 induced neutrophil migration
inhibition of IFN-γ [3]: highly selective inhibitor of IFN-γ
Free Plasma Conc ([4]; p.o. 0.2 mg/kg, 1.5h): BLQ
concentration at 1.5 h ([4]; p.o. 1 mg/kg, 1.5h): 1.8 nM
concentration at […] ([4]; p.o. 1 mg/kg): 1.1 nM
concentration at 1.5 h ([4]; p.o. 5 mg/kg, 1.5h): 17.8 nM
concentration at […] ([4]; p.o. 5 mg/kg): 4.6 nM
gamma/delta selectivity ratio ([5]; IC50 against PI3K gamma divided by IC50 against PI3K delta): greater than 50
IC50 ([6]; read-out: Cellular IC50 γ): 418 nM
IC50 [7]: < 100 nM
IC50 [8]: 1900 nM
neutrophil in bronchoalveolar lavage fluid (BALF) [9]: reduced neutrophil
IC50 ([10]; read-out: Cellular IC50 δ): 0.1 nM
IC50, CXCL12 induced p-AKT ([11]; differentiated and M1 polarized macrophage): did not significantly inhibit
IC50, CXCL12 induced p-AKT ([11]; differentiated and M2 polarized macrophage): did not significantly inhibit
IC50 [12]: 102 nM

C[C@H](NC(=O)c1c(N)nn2cccnc12)c1cc2cccc(C#Cc3cnn(C)c3)c2c(=O)n1-c1ccccc1 [Compound 4]
predicted human dose to achieve exposure at the IC90 for PI3K-γ [13]: approximately 2 mg

Cc1c(C#Cc2cccc3nc([C@H](C)NC(=O)c4c(N)nn5cccnc45)n(-c4ccccc4)c(=O)c23)cnn1C [Compound 88, (S)-2-amino-N-(1-(5-((1,5-dimethyl-1H-pyrazol-4-yl)ethynyl)-4-oxo-3-phenyl-3,4-dihydroquinazolin-2-yl)ethyl)pyrazolo[1,5-a]pyrimidine-3-carboxamide]
IC50 [14]: 100 to 500 nM
PI3K δ/PI3K γ IC50 (selectivity) [14]: X (key: V = 0.1 to 1; W = >1 to <10; X = 10 to <50; Y = 50 to <850)
IC50 [5]: 5000 to 10000 nM
RAJIδ/Raw264.7 γ IC50 (selectivity) [6]: Y (key: V = 0.1 to 1; W = >1 to <10; X = 10 to <50; Y = 50 to <850)
IC50 ([6]; phospho-AKT, read-out: Raw264.7 p110 γ assay IC50): 1 to 50 nM
IC50 ([10]; phospho-AKT, read-out: RAJI p110 δ assay IC50): 100 to 500 nM
IC50 [15]: 5000 to 10000 nM
IC50 [16]: 5000 to 10000 nM
tlast ([17]; 2 mg/kg PO NMP): 8 h
tlast ([17]; 7.5 mg/kg PO NMP): 24 h
tlast ([17]; 15 mg/kg PO NMP): 24 h
stability in serum (unbound plasma concentration time course) ([17]; female mice, 2, 7.5, 15 mg/kg PO): good stability in serum
AUC(0-t) ([17]; 2 mg/kg, 2 mg/kg PO NMP, read-out: AUC0-8): 3890 ng·h/mL
AUC(0-t) ([17]; 2 mg/kg, 2 mg/kg PO NMP, read-out: AUClast): 3890 ng·h/mL
AUC(0-t) ([17]; 7.5 mg/kg, 7.5 mg/kg PO NMP, read-out: AUC0-8): 15800 ng·h/mL
AUC(0-t) ([17]; 7.5 mg/kg, 7.5 mg/kg PO NMP, read-out: AUClast): 20600 ng·h/mL
AUC(0-t) ([17]; 15 mg/kg, 15 mg/kg PO NMP, read-out: AUC0-8): 34600 ng·h/mL
AUC(0-t) ([17]; 15 mg/kg, 15 mg/kg PO NMP, read-out: AUClast): 71700 ng·h/mL
Cmax ([17]; 2 mg/kg PO NMP): 654 ng/mL
Tmax ([17]; 2 mg/kg PO NMP): 2 h
AUC(0-inf) ([17]; 7.5 mg/kg PO NMP): 20700 ng·h/mL
Cmax ([17]; 7.5 mg/kg PO NMP): 3700 ng/mL
Tmax ([17]; 7.5 mg/kg PO NMP): 1 h
half-life ([17]; 7.5 mg/kg PO NMP): 2.8 h
AUC(0-inf) ([17]; 15 mg/kg PO NMP): 81200 ng·h/mL
Cmax ([17]; 15 mg/kg PO NMP): 5700 ng/mL
Tmax ([17]; 15 mg/kg PO NMP): 1 h
half-life ([17]; 15 mg/kg PO NMP): 7.9 h

CC[C@H](Nc1ncnc2[nH]cnc12)c1nc2cccc(F)c2c(=O)n1-c1ccccc1 [CAL-101]
lymph node and lymphocyte response in CLL patients ([18]; CLL patients): induces rapid lymph node reduction and redistribution of lymphocytes into the circulation
single agent clinical activity in lymphoma ([18]; mantle cell lymphoma and refractory non Hodgkin's lymphoma): active in mantle cell lymphoma
clinical activity in CLL ([18]; phase 1 trial, patients with poor prognostic characteristics): showed activity in CLL
expression of stromal and T-cell derived factors including CCL3, CCL4, and CXCL13 [19]: suppresses the expression

O=P1(N(CCCl)CCCl)NCCCO1 (stereo not drawn) [cyclophosphamide, reference compound]
tumor growth, LLC tumor brei model [20]: reduced tumor growth
